Measurements from patent US9556139B2, “6-substituted phenoxychroman carboxylic acid derivatives” (Array BioPharma Inc., priority 2008, dated 2017).

target: human DP2 (Homo sapiens (Human), UniProt Q9Y5Y4); experiment: DP-2 Binding Inhibition Assay (3H-PGD2 binding to membranes of K562 cells expressing DP2); details: EC50 (nM) 4% HSA, inhibition of 3H-PGD2 binding, 4% HSA
In short: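 Radioligand filtration binding: ³H-PGD2 displacement from DP2-expressing K562 cell membranes, 60 min, room temperature, pH 7.4, under 0.1% BSA, 1% HSA or 4% HSA.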

Sequence of human DP2 (Q9Y5Y4 whole entry): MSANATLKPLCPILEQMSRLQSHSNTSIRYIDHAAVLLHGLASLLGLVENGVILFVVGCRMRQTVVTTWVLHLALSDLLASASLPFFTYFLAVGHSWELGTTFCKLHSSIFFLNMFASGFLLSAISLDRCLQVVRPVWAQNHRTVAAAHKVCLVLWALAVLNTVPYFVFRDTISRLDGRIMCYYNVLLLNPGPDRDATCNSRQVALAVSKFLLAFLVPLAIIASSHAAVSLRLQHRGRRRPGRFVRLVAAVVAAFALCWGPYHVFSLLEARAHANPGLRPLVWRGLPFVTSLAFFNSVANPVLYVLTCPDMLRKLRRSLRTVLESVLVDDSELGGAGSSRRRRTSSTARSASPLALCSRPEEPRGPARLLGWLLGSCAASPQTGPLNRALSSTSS

Compound | EC50 [nM]
COc1cc(C2CC2)ccc1CCNC(=O)c1ccc(Oc2cc3c(cc2Cl)C(C(=O)O)CCO3)cc1 (single isomer, unassigned) [235 Enantiomer 1, 6-chloro-7-(4-(4-cyclopropyl-2-methoxyphenethylcarbamoyl)phenoxy)chroman-4-carboxylic acid] | > 5000

same assay, conditions: assay described in Example A

Compound | relative activity of the enantiomers in the DP2 binding inhibition assay
COc1cc(C2CC2)ccc1CCNC(=O)c1ccc(Oc2cc3c(cc2Cl)C(C(=O)O)CCO3)cc1 (single isomer, unassigned) [235 Enantiomer 1, 6-chloro-7-(4-(4-cyclopropyl-2-methoxyphenethylcarbamoyl)phenoxy)chroman-4-carboxylic acid] | less active than the sodium salt of Enantiomer 2

same assay, conditions: read-out: EC50 (Nm) 1% HSA; inhibition of 3H-PGD2 binding, 1% HSA

Compound | EC50 [nM]
N#Cc1cc2c(cc1Oc1ccc(C(=O)Nc3ccc4ccccc4c3)cc1)OCCC2C(=O)O (stereo not shown) [Example 76, 6-Cyano-7-(4-(naphthalen-2-ylcarbamoyl)phenoxy)chroman-4-carboxylic acid] | 6.7
N#Cc1cc2c(cc1Oc1ccc(C(=O)NC3CCc4ccccc4C3)cc1)OCCC2C(=O)O (stereo not shown) [Example 72, 6-Cyano-7-(4-(1,2,3,4-tetrahydronaphthalen-2-ylcarbamoyl)phenoxy)chroman-4-carboxylic acid] | 36.4
Cc1cc(C(=O)NCCc2ccc(Cl)cc2)ccc1Oc1cc2c(cc1C#N)C(C(=O)O)CCO2 (stereo not shown) [Example 129, 7-(4-(4-Chlorophenethylcarbamoyl)-2-methylphenoxy)-6-cyanochroman-4-carboxylic acid] | 21.9
N#Cc1cc2c(cc1Oc1ccc(C(=O)NCCc3ccc(F)cc3)cc1)OCCC2C(=O)O (stereo not shown) [Example 49, 7-(4-((4-Fluorophenethyl)carbamoyl)phenoxy)-6-cyano-3,4-dihydro-2H-chromene-4-carboxylic acid] | 22.5
COc1cccc(CCNC(=O)c2ccc(Oc3cc4c(cc3C#N)C(C(=O)O)CCO4)cc2)c1 (stereo not shown) [Example 48, 7-(4-((3-Methoxyphenethyl)carbamoyl)phenoxy)-6-cyano-3,4-dihydro-2H-chromene-4-carboxylic acid] | 30.7

same assay, conditions: read-out: EC50 (nM) 4% HSA; inhibition of 3H-PGD2 binding, 4% HSA

Compound | EC50 [nM]
O=C(N[C@H]1CCCN(c2cccc(Cl)c2)C1)c1ccc(Oc2cc3c(cc2Cl)C(C(=O)O)CCO3)cc1 (stereo partly drawn) [Example 125, Sodium 6-chloro-7-(4-((S)-1-(3-chlorophenyl)piperidin-3-ylcarbamoyl)phenoxy)chroman-4-carboxylate] | 421
COC(CNC(=O)c1ccc(Oc2cc3c(cc2Cl)C(C(=O)O)CCO3)cc1)c1ccc(Cl)cc1 (stereo not shown) [Example 188, Sodium 6-chloro-7-(4-(2-(4-chlorophenyl)-2-methoxyethylcarbamoyl)phenoxy)chroman-4-carboxylate] | 759
O=C(NCCc1cccc(O)c1)c1ccc(Oc2cc3c(cc2Cl)C(C(=O)O)CCO3)cc1 (stereo not shown) [Example 83, Sodium 6-chloro-7-(4-(3-hydroxyphenethylcarbamoyl)phenoxy)chroman-4-carboxylate] | 569
N#Cc1cc2c(cc1Oc1ccc(C(=O)Nc3ccc(-c4ccccc4)cc3)cc1)OCCC2C(=O)O (stereo not shown) [Example 68, 7-(4-(Biphenyl-4-ylcarbamoyl)phenoxy)-6-cyanochroman-4-carboxylic acid] | 206
CC(C)(C)c1ccc(CCNC(=O)c2ccc(Oc3cc4c(cc3Cl)C(C(=O)O)CCO4)cc2)cc1 (stereo not shown) [Example 142, Sodium 7-(4-(4-tert-butylphenethylcarbamoyl)phenoxy)-6-chlorochroman-4-carboxylate] | 140
O=C(NCCc1ccc(O)cc1)c1ccc(Oc2cc3c(cc2Cl)C(C(=O)O)CCO3)cc1 (stereo not shown) [Example 84, Sodium 6-chloro-7-(4-(4-hydroxyphenethylcarbamoyl)phenoxy)chroman-4-carboxylate] | 1380
COc1cc(F)ccc1CCNC(=O)c1ccc(Oc2cc3c(cc2Cl)C(C(=O)O)CCO3)cc1 (stereo not shown) [Example 101, Sodium 6-chloro-7-(4-(4-fluoro-2-methoxyphenethylcarbamoyl)phenoxy)chroman-4-carboxylate] | 292
O=C(NCCc1cc(F)ccc1Oc1ccc(Cl)c(Cl)c1)c1ccc(Oc2cc3c(cc2Cl)C(C(=O)O)CCO3)cc1 (stereo not shown) [Example 212, sodium 6-chloro-7-(4-(2-(3,4-dichlorophenoxy)-5-fluorophenethylcarbamoyl)phenoxy)chroman-4-carboxylate] | 81.5
Cc1ccc(-c2cccc(NC(=O)c3ccc(Oc4cc5c(cc4C#N)C(C(=O)O)CCO5)cc3)c2)cc1C (stereo not shown) [Example 66, 6-Cyano-7-(4-(3′,4′-dimethylbiphenyl-3-ylcarbamoyl)phenoxy)chroman-4-carboxylic acid] | 68.2
CCOc1ccccc1CCNC(=O)c1ccc(Oc2cc3c(cc2Cl)C(C(=O)O)CCO3)cc1 (stereo not shown) [Example 114, Sodium 6-chloro-7-(4-(2-ethoxyphenethylcarbamoyl)phenoxy)chroman-4-carboxylate] | 91
COc1cc(Cl)c(CCNC(=O)c2ccc(Oc3cc4c(cc3Cl)C(C(=O)O)CCO4)cc2)c(Cl)c1 (stereo not shown) [Example 224, 6-chloro-7-(4-(2,6-dichloro-4-methoxyphenethylcarbamoyl)phenoxy)chroman-4-carboxylic acid] | 373
O=C(NCCCCc1ccccc1Cl)c1ccc(Oc2cc3c(cc2Cl)C(C(=O)O)CCO3)cc1 (stereo not shown) [Example 17, Sodium 6-chloro-7-(4-(4-(2-chlorophenyl)butylcarbamoyl)phenoxy)chroman-4-carboxylate] | 395
O=C(NCCc1ccc(C2CC2)cc1)c1ccc(Oc2cc3c(cc2Cl)C(C(=O)O)CCO3)cc1 (stereo not shown) [Example 24, Sodium 6-chloro-7-(4-(4-cyclopropylphenethylcarbamoyl)phenoxy)chroman-4-carboxylate] | 482
O=C(NCCc1ccc(C(F)(F)F)cc1C(F)(F)F)c1ccc(Oc2cc3c(cc2Cl)C(C(=O)O)CCO3)cc1 (stereo not shown) [Example 221, 7-(4-(2,4-bis(trifluoromethyl)phenethylcarbamoyl)phenoxy)-6-chlorochroman-4-carboxylic acid] | 45
O=C(NCCc1cccc(Oc2ccccc2)c1)c1ccc(Oc2cc3c(cc2Cl)C(C(=O)O)CCO3)cc1 (stereo not shown) [Example 149, Sodium 6-chloro-7-(4-(3-phenoxyphenethylcarbamoyl)phenoxy)chroman-4-carboxylate] | 280
O=C(NCCc1ccc(Cl)cc1Cl)c1ccc(Oc2c(Cl)cc3c(c2C2CC2)OCCC3C(=O)O)cc1 (stereo not shown) [Example 43, Sodium 6-chloro-8-cyclopropyl-7-(4-(2,4-dichlorophenethylcarbamoyl)phenoxy)chroman-4-carboxylate] | 51.5
Cc1cccc(C2CCC(NC(=O)c3ccc(Oc4cc5c(cc4Cl)C(C(=O)O)CCO5)cc3)C2)c1 (stereo not shown) [Example 169, Sodium 6-chloro-7-(4-(3-(3-methylphenyl)cyclopentylcarbamoyl)phenoxy)chroman-4-carboxylate] | 204
N#Cc1cc2c(cc1Oc1ccc(C(=O)NCCc3ccc(-c4ccccc4)cc3)cc1)OCCC2C(=O)O (stereo not shown) [Example 58, 7-(4-(2-(Biphenyl-4-yl)ethylcarbamoyl)phenoxy)-6-cyanochroman-4-carboxylic acid] | 434
O=C(NCCc1ccc(-c2ccccc2)cc1)c1ccc(Oc2cc3c(cc2Cl)C(C(=O)O)CCO3)cc1 (stereo not shown) [Example 59] | 158
Cc1cc(Oc2cc3c(cc2Cl)C(C(=O)O)CCO3)ccc1C(=O)NCCc1ccc(Cl)cc1Cl (stereo not shown) [Example 183, Sodium 6-chloro-7-(4-(2,4-dichlorophenethylcarbamoyl)-3-methylphenoxy)chroman-4-carboxylate] | 968
O=C(NCCc1ccccc1Cl)c1ccc(Oc2cc3c(cc2Cl)C(C(=O)O)CCO3)cc1 (stereo not shown) [Example 79, Sodium 6-chloro-7-(4-(2-chlorophenethylcarbamoyl)phenoxy)chroman-4-carboxylate] | 98.9
COc1cc(C2CC2)ccc1CCNC(=O)c1ccc(Oc2cc3c(cc2Cl)[C@@H](C(=O)O)CCO3)cc1 (single isomer, unassigned; enantiomer 2) [235 Enantiomer 2] | 17
O=C(NCCc1ccc(-c2ccccc2)cc1Cl)c1ccc(Oc2cc3c(cc2Cl)C(C(=O)O)CCO3)cc1 (stereo not shown) [Example 31, Sodium 6-chloro-7-(4-(2-(3-chlorobiphenyl-4-yl)ethylcarbamoyl)phenoxy)chroman-4-carboxylate] | 91.4
COc1cccc(C2CCCC(NC(=O)c3ccc(Oc4cc5c(cc4Cl)C(C(=O)O)CCO5)cc3)C2)c1 (stereo not shown) [Example 163, 6-Chloro-7-(4-(3-(3-methoxyphenyl)cyclohexylcarbamoyl)phenoxy)chroman-4-carboxylic acid] | 509
O=C(NCCc1ccc(-c2ccccc2Cl)cc1Cl)c1ccc(Oc2cc3c(cc2Cl)C(C(=O)O)CCO3)cc1 (stereo not shown) [Example 29, Sodium 6-chloro-7-(4-(2-(2′,3-dichlorobiphenyl-4-yl)ethylcarbamoyl)phenoxy)chroman-4-carboxylate] | 137
Cc1ccccc1CCNC(=O)c1ccc(Oc2cc3c(cc2Cl)C(C(=O)O)CCO3)cc1 (stereo not shown) [Example 20, Sodium 6-chloro-7-(4-(2-methylphenethylcarbamoyl)phenoxy)chroman-4-carboxylate] | 759
COc1ccc(CCNC(=O)c2ccc(Oc3cc4c(cc3Cl)C(C(=O)O)CCO4)cc2)c(Cl)c1 (stereo not shown) [Example 100, Sodium 6-chloro-7-(4-(2-chloro-4-methoxyphenethylcarbamoyl)phenoxy)chroman-4-carboxylate] | 619
O=C(NCCc1ccccc1-c1ccccc1Cl)c1ccc(Oc2cc3c(cc2Cl)C(C(=O)O)CCO3)cc1 (stereo not shown) [Example 96, Sodium 6-chloro-7-(4-(2-(2′-chlorobiphenyl-2-yl)ethylcarbamoyl)phenoxy)chroman-4-carboxylate] | 40.2
CN(C)Cc1ccc(CCNC(=O)c2ccc(Oc3cc4c(cc3C#N)C(C(=O)O)CCO4)cc2)cc1 (stereo not shown) [Example 44, 6-Cyano-7-(4-(4-((dimethylamino)methyl)phenethylcarbamoyl)phenoxy)chroman-4-carboxylic acid] | 3480
CCOc1cc(Cl)c(Cl)cc1CCNC(=O)c1ccc(Oc2cc3c(cc2Cl)C(C(=O)O)CCO3)cc1 (stereo not shown) [Example 201, sodium 6-chloro-7-(4-(4,5-dichloro-2-ethoxyphenethylcarbamoyl)phenoxy)chroman-4-carboxylate] | 138
